Where two headings read alike, the source gives them in different places.
Experiments:
[1] = Basic compatibility of Ag5IO6 with gels (visual, pH, UV-Vis, XRD); format: physicochemical
Source text: The purpose of this study was to determine whether Ag5IO6 could be incorporated into various gels without reacting with the gels. Ag5IO6 powder was combined with various commercially available hydrogels and then visually examined for stability, along with UV-Vis analysis and x-ray diffraction.
Gels selected: Guardian Laboratories AquaThik™ (Xanthan gum, PEG-180; 3% in water); Lubrajel® RC (Water, glycerin, propylene glycol, polyacrylic acid, sodium polyacrylate, 0.18% methylparaben, 0.02% propylparaben), and Lubrajel® PF (Glycerin, glyceryl acrylate/acrylic acid copolymer); SteriLub™ (unknown composition); BASF Pluronic® F127+Carbowax 600 (Polyoxyethylene-polyoxypropylene block copolymer; 18% Pluronic, 15% Carbowax 600); ConvaTec DuoDerm® Hydroactive® Sterile Gel (pectin, sodium carboxymethylcellulose); MoInlycke Normlgel® (0.9% NaCl, H2O, xanthan gum); Smith & Nephew IntraSite Gel (Water>60%, propylene glycol 10-30%, absorbent polymer<10%-crilanomer, a Graft-T starch copolymer) and SoloSite Gel (Water>60%, glycerol 10-30%, absorbent polymer<10%, allantoin<1%, antiseptic/preservative<1%); carboxymethylcellulose gel (4% in water); Cremophor; and Gelrite (0.4% in water).
For each gel, the samples were mixed in a small glass container with fine Ag5IO6 powder to generate 500 ppm Ag5IO6 in the gels. Each of the above formulations were examined for visual signs of instability, such as dramatic viscosity changes, color changes, release of gas, deposition of precipitate that appears different from the original Ag5IO6, and temperature change during stirring (heat release).
UV-Vis Analysis: Samples were diluted to 1/10th their original concentration. For UV-Vis blanks, control gels (with no Ag5IO6) were prepared as described for each gel, and diluted to 1/10th as well. UV-Vis measurements were performed between 190-500 nm.
pHs of the gel formulations were measured with and without the Ag5IO6 added using pH indicator strips.

[2] = Ag5IO6 solubility in water and saline, OECD Method (105) flask; format: physicochemical
Source text: The purpose of this study was to develop a basic understanding of the solubility (and stability) of Ag5IO6 in pure water and 0.9% (physiological saline), following OECD Method (105)—flask.

[3] = Ag5IO6 stability in solvents (isothermal TAM III heat flow, XRD); format: physicochemical
Procedure: The purpose of this study was to determine whether or not Ag5IO6 interacts with methanol, tetrahydrofuran, acetone, and acetonitrile. […] of Ag5IO6 was placed in a vial, 2 mL of the solvent was added, and the vial was placed in a TAM III for an isothermal run at room temperature for >24 h with solvent only as the reference. The heat flow was measured. After the run was complete, the solvents were allowed to flash off and the solids collected were submitted to XRD. Samples exposed following essentially the same method for only 18 h were also submitted for XRD

[4] = for Grain size: 90° C.

Compound: [Ag+].[Ag+].[Ag+].[Ag+].[Ag+].[O-][I+]([O-])([O-])([O-])([O-])[O-] [Ag5IO6, pentasilver hexaoxoiodate]
- Ag5IO6 purity by XRD after mixing into gel ([1]; 500 ppm Ag5IO6 in AquaThik gel): 100%
- XRD: reaction of Ag5IO6 with gel ([1]; 500 ppm Ag5IO6 in Cremophor gel): no Ag5IO6 detected by the XRD analysis
- XRD: reaction of Ag5IO6 with gel ([1]; 500 ppm Ag5IO6 in DuoDerm hydrogel): remained pure
- XRD: reaction of Ag5IO6 with gel ([1]; 500 ppm Ag5IO6 in Gelrite (0.4% in water)): did not react
- XRD: reaction of Ag5IO6 with gel ([1]; 500 ppm Ag5IO6 in IntraSite gel): no reaction products
- XRD: reaction of Ag5IO6 with gel ([1]; 500 ppm Ag5IO6 in Lubrajel PF): had not reacted
- XRD: reaction of Ag5IO6 with gel ([1]; 500 ppm Ag5IO6 in Lubrajel RC): did not react
- XRD: reaction of Ag5IO6 with gel ([1]; 500 ppm Ag5IO6 in Normlgel (0.9% NaCl), AgCl found): incompatible under these conditions with this gel for long term storage
- Visual signs of instability after addition of Ag5IO6 ([1]; 500 ppm Ag5IO6 in Pluronic F127 plus Carbowax 600, no XRD): undesirable physical changes in the gel
- XRD: reaction of Ag5IO6 with gel ([1]; 500 ppm Ag5IO6 in SoloSite gel): no reaction products
- Ag5IO6 purity by XRD after mixing into gel ([1]; 500 ppm Ag5IO6 in SteriLub gel): 100%
- XRD: reaction of Ag5IO6 with gel ([1]; 500 ppm Ag5IO6 in carboxymethylcellulose gel (4% in water)): not reactive
- Solubility ([2]; ddH2O): 24.41 ± 0.87 µg/mL
- pH of solution ([2]; in ddH2O): 8
- Solid material converted to Ag metal (XRD) ([2]; in ddH2O, end of experiment): 0.1%
- Solid material remaining as Ag5IO6 (XRD) ([2]; in ddH2O, end of experiment): approximately 99.9%
- pH of solution ([2]; in saline): 10
- Solid material converted to AgCl (XRD) ([2]; in saline, end of experiment): approximately 25%
- Solubility ([2]; saline (0.9%)): 0.61 ± 0.05 µg/mL
- Rank of solubility in organic solvents [3]: methanol>>THF>acetone>acetonitrile
- Onset of significant reaction ([3]; acetonitrile (slower onset), room temperature): about 56 h
- Time blended without substantial reaction ([3]; all solvents (methanol, tetrahydrofuran, acetone, acetonitrile), room temperature): < 18 h
- Onset of significant reaction ([3]; methanol, room temperature): about 33 h
- Onset of significant reaction ([3]; solvent printed as THE, room temperature): about 56 h
- Grain size ([4]; Day 0): 14 Å
- Grain size ([4]; Day 14): 62 Å
- Grain size ([4]; Day 28): 94 Å
- Composition remaining Ag5IO6 ([4]; 672 h): 100%
- Shelf life ([4]; room temperature, extrapolated from accelerated storage): > 2 years

Source: US12357723B2, “Antimicrobial silver iodate” (Innovotech, Inc., priority 2012, dated 2025)
